{"source": "ChEMBL document CHEMBL1671652", "about": "“Efficacy of piperacillin combined with the Penem beta-lactamase inhibitor BLI-489 in murine models of systemic infection” (2009)", "key": {"Salmonella typhimurium [1]": {"tested_on": "Salmonella typhimurium", "assay": "Antimicrobial activity against CTX-M-5 beta-lactamase producing Salmonella enterica serovar Typhimurium GC 4195 infected in CD-1 mouse treated 30 and 150 mins postinfection in presence of 8:1 ratio of compound to beta-lactamase inhibitor BLI-489", "assay_type": "functional, Salmonella enterica subsp. enterica serovar Typhimurium"}, "Escherichia coli [2]": {"tested_on": "Escherichia coli", "assay": "Antimicrobial activity against OXA-1 beta-lactamase producing Escherichia coli GAR 5946 infected in CD-1 mouse treated 30 and 150 mins postinfection", "assay_type": "functional"}, "Enterobacter cloacae [3]": {"tested_on": "Enterobacter cloacae", "assay": "Antimicrobial activity against AmpC beta-lactamase producing Enterobacter cloacae GC 4142 infected in CD-1 mouse treated 30 and 150 min postinfection", "assay_type": "functional"}, "Salmonella typhimurium [4]": {"tested_on": "Salmonella typhimurium", "assay": "Antimicrobial activity against CTX-M-5 beta-lactamase producing Salmonella enterica serovar Typhimurium GC 4195 by broth microdilution method in presence of beta-lactamase inhibitor Tazobactam", "assay_type": "functional, Salmonella enterica subsp. enterica serovar Typhimurium"}, "Enterobacter cloacae [5]": {"tested_on": "Enterobacter cloacae", "assay": "Antimicrobial activity against AmpC beta-lactamase producing Enterobacter cloacae GC 4142 by broth microdilution method in presence of beta-lactamase inhibitor Tazobactam", "assay_type": "functional"}, "Escherichia coli [6]": {"tested_on": "Escherichia coli", "assay": "Antimicrobial activity against TEM-1 beta-lactamase producing Escherichia coli GC 6265 infected in CD-1 mouse treated 30 mins postinfection in presence of 14:1 ratio of compound to beta-lactamase inhibitor BLI-489", "assay_type": "functional", "details": "GC 6265, 0.5 h"}, "Escherichia coli [7]": {"tested_on": "Escherichia coli", "assay": "Antimicrobial activity against ACT-1 beta-lactamase producing Escherichia coli GC 2814 by broth microdilution method in presence of beta-lactamase inhibitor Tazobactam", "assay_type": "functional"}, "Klebsiella pneumoniae [8]": {"tested_on": "Klebsiella pneumoniae", "assay": "Antimicrobial activity against SHV-11 beta-lactamase producing Klebsiella pneumoniae GAR 7693 by broth microdilution method", "assay_type": "functional"}, "Pseudomonas aeruginosa [9]": {"tested_on": "Pseudomonas aeruginosa", "assay": "Antimicrobial activity against AmpC beta-lactamase producing Pseudomonas aeruginosa GC 1764 by broth microdilution method", "assay_type": "functional"}, "Escherichia coli [10]": {"tested_on": "Escherichia coli", "assay": "Antimicrobial activity against TEM-1 beta-lactamase producing Escherichia coli GC 6265 infected in CD-1 mouse treated 30 mins postinfection in presence of 4:1 ratio of compound to beta-lactamase inhibitor BLI-489", "assay_type": "functional", "details": "GC 6265, 0.5 h"}, "Escherichia coli [11]": {"tested_on": "Escherichia coli", "assay": "Antimicrobial activity against ACT-1 beta-lactamase producing Escherichia coli GC 2814 by broth microdilution method in presence of 8:1 ratio of compound to beta-lactamase inhibitor BLI-489", "assay_type": "functional"}, "Escherichia coli [12]": {"tested_on": "Escherichia coli", "assay": "Antimicrobial activity against TEM-1 beta-lactamase producing Escherichia coli GC 6265 by broth microdilution method", "assay_type": "functional"}, "Escherichia coli [13]": {"tested_on": "Escherichia coli", "assay": "Antimicrobial activity against OXA-1 beta-lactamase producing Escherichia coli GAR 5946 by broth microdilution method", "assay_type": "functional"}, "Escherichia coli [14]": {"tested_on": "Escherichia coli", "assay": "Antimicrobial activity against TEM-1 beta-lactamase producing Escherichia coli GC 6265 infected in CD-1 mouse treated 30 mins postinfection in presence of 6:1 ratio of compound to beta-lactamase inhibitor BLI-489", "assay_type": "functional", "details": "GC 6265, 0.5 h"}, "Escherichia coli [15]": {"tested_on": "Escherichia coli", "assay": "Antimicrobial activity against TEM-1 beta-lactamase producing Escherichia coli GC 6265 infected in CD-1 mouse treated 30 mins postinfection in presence of 10:1 ratio of compound to beta-lactamase inhibitor BLI-489", "assay_type": "functional", "details": "GC 6265, 0.5 h"}, "Pseudomonas aeruginosa [16]": {"tested_on": "Pseudomonas aeruginosa", "assay": "Antimicrobial activity against AmpC beta-lactamase producing Pseudomonas aeruginosa GC 1764 infected in CD-1 mouse treated 30 and 150 mins postinfection in presence of beta-lactamase inhibitor Tazobactam", "assay_type": "functional"}, "Staphylococcus aureus [17]": {"tested_on": "Staphylococcus aureus", "assay": "Antimicrobial activity against penicillinase producing Staphylococcus aureus GC 6468 by broth microdilution method in presence of 8:1 ratio of compound to beta-lactamase inhibitor BLI-489", "assay_type": "functional"}, "Pseudomonas aeruginosa [18]": {"tested_on": "Pseudomonas aeruginosa", "assay": "Antimicrobial activity against AmpC beta-lactamase producing Pseudomonas aeruginosa GC 1764 by broth microdilution method in presence of beta-lactamase inhibitor Tazobactam", "assay_type": "functional"}, "Enterobacter cloacae [19]": {"tested_on": "Enterobacter cloacae", "assay": "Antimicrobial activity against AmpC beta-lactamase producing Enterobacter cloacae GC 4142 infected in CD-1 mouse treated 30 and 150 min postinfection in presence of 4:1 ratio of compound to beta-lactamase inhibitor BLI-489", "assay_type": "functional"}, "Escherichia coli [20]": {"tested_on": "Escherichia coli", "assay": "Antimicrobial activity against TEM-1 beta-lactamase producing Escherichia coli GC 6265 infected in CD-1 mouse treated 30 mins postinfection in presence of 2:1 ratio of compound to beta-lactamase inhibitor BLI-489", "assay_type": "functional", "details": "GC 6265, 0.5 h"}, "Escherichia coli [21]": {"tested_on": "Escherichia coli", "assay": "Antimicrobial activity against TEM-10 beta-lactamase producing Escherichia coli GC 2022 by broth microdilution method in presence of 8:1 ratio of compound to beta-lactamase inhibitor BLI-489", "assay_type": "functional"}, "Enterobacter cloacae [22]": {"tested_on": "Enterobacter cloacae", "assay": "Antimicrobial activity against AmpC beta-lactamase producing Enterobacter cloacae GC 4142 infected in CD-1 mouse treated 30 and 150 min postinfection in presence of 10:1 ratio of compound to beta-lactamase inhibitor BLI-489", "assay_type": "functional"}, "Salmonella typhimurium [23]": {"tested_on": "Salmonella typhimurium", "assay": "Antimicrobial activity against CTX-M-5 beta-lactamase producing Salmonella enterica serovar Typhimurium GC 4195 by broth microdilution method", "assay_type": "functional, Salmonella enterica subsp. enterica serovar Typhimurium"}, "Salmonella typhimurium [24]": {"tested_on": "Salmonella typhimurium", "assay": "Antimicrobial activity against CTX-M-5 beta-lactamase producing Salmonella enterica serovar Typhimurium GC 4195 by broth microdilution method in presence of 8:1 ratio of compound to beta-lactamase inhibitor BLI-489", "assay_type": "functional, Salmonella enterica subsp. enterica serovar Typhimurium"}, "Escherichia coli [25]": {"tested_on": "Escherichia coli", "assay": "Antimicrobial activity against TEM-10 beta-lactamase producing Escherichia coli GC 2022 infected in CD-1 mouse treated 30 mins postinfection in presence of 8:1 ratio of compound to beta-lactamase inhibitor BLI-489", "assay_type": "functional", "details": "GC 2022, 0.5 h"}, "Escherichia coli [26]": {"tested_on": "Escherichia coli", "assay": "Antimicrobial activity against TEM-1 beta-lactamase producing Escherichia coli GC 6265 infected in CD-1 mouse treated 30 mins postinfection in presence of 8:1 ratio of compound to beta-lactamase inhibitor BLI-489", "assay_type": "functional", "details": "GC 6265, 0.5 h"}, "Salmonella typhimurium [27]": {"tested_on": "Salmonella typhimurium", "assay": "Antimicrobial activity against CTX-M-5 beta-lactamase producing Salmonella enterica serovar Typhimurium GC 4195 infected in CD-1 mouse treated 30 and 150 mins postinfection", "assay_type": "functional, Salmonella enterica subsp. enterica serovar Typhimurium"}, "Enterobacter cloacae [28]": {"tested_on": "Enterobacter cloacae", "assay": "Antimicrobial activity against AmpC beta-lactamase producing Enterobacter cloacae GC 4142 infected in CD-1 mouse treated 30 and 150 min postinfection in presence of 14:1 ratio of compound to beta-lactamase inhibitor BLI-489", "assay_type": "functional"}, "Escherichia coli [29]": {"tested_on": "Escherichia coli", "assay": "Antimicrobial activity against OXA-1 beta-lactamase producing Escherichia coli GAR 5946 by broth microdilution method in presence of beta-lactamase inhibitor Tazobactam", "assay_type": "functional"}, "Staphylococcus aureus [30]": {"tested_on": "Staphylococcus aureus", "assay": "Antimicrobial activity against penicillinase producing Staphylococcus aureus GC 6468 by broth microdilution method", "assay_type": "functional"}, "Staphylococcus aureus [31]": {"tested_on": "Staphylococcus aureus", "assay": "Antimicrobial activity against penicillinase producing Staphylococcus aureus GC 6468 by broth microdilution method in presence of beta-lactamase inhibitor Tazobactam", "assay_type": "functional"}, "Klebsiella pneumoniae [32]": {"tested_on": "Klebsiella pneumoniae", "assay": "Antimicrobial activity against SHV-1and SHV-5 beta-lactamase producing Klebsiella pneumoniae GAR 7978 by broth microdilution method in presence of beta-lactamase inhibitor Tazobactam", "assay_type": "functional"}, "Escherichia coli [33]": {"tested_on": "Escherichia coli", "assay": "Antimicrobial activity against TEM-1 beta-lactamase producing Escherichia coli GC 6265 by broth microdilution method in presence of beta-lactamase inhibitor Tazobactam", "assay_type": "functional"}, "Klebsiella pneumoniae [34]": {"tested_on": "Klebsiella pneumoniae", "assay": "Antimicrobial activity against SHV-1and SHV-5 beta-lactamase producing Klebsiella pneumoniae GAR 7978 by broth microdilution method", "assay_type": "functional"}, "Escherichia coli [35]": {"tested_on": "Escherichia coli", "assay": "Antimicrobial activity against ACT-1 beta-lactamase producing Escherichia coli GC 2814 infected in CD-1 mouse treated 30 and 150 mins postinfection in presence of beta-lactamase inhibitor Tazobactam", "assay_type": "functional"}, "Klebsiella pneumoniae [36]": {"tested_on": "Klebsiella pneumoniae", "assay": "Antimicrobial activity against SHV-1and SHV-5 beta-lactamase producing Klebsiella pneumoniae GAR 7978 by broth microdilution method in presence of 8:1 ratio of compound to beta-lactamase inhibitor BLI-489", "assay_type": "functional"}}, "data": [{"smiles": "CCN1CCN(C(=O)N[C@@H](C(=O)N[C@@H]2C(=O)N3[C@@H]2SC(C)(C)[C@@H]3C(=O)O)c2ccccc2)C(=O)C1=O", "note": "[PIPERACILLIN]", "values": [{"measurement": "ED50", "setting": "Salmonella typhimurium [1]", "result": 45, "unit": "mg/kg"}, {"measurement": "ED50", "setting": "Escherichia coli [2]", "result": 980, "unit": "mg/kg"}, {"measurement": "ED50", "setting": "Enterobacter cloacae [3]", "result": 282, "unit": "mg/kg"}, {"measurement": "MIC", "setting": "Salmonella typhimurium [4]", "result": "> 64", "unit": "mg/L"}, {"measurement": "MIC", "setting": "Enterobacter cloacae [5]", "result": 4, "unit": "mg/L"}, {"measurement": "ED50", "setting": "Escherichia coli [6]", "result": 16, "unit": "mg/kg"}, {"measurement": "MIC", "setting": "Escherichia coli [7]", "result": "> 64", "unit": "mg/L"}, {"measurement": "MIC", "setting": "Klebsiella pneumoniae [8]", "result": 2, "unit": "mg/L"}, {"measurement": "MIC", "setting": "Pseudomonas aeruginosa [9]", "result": "> 64", "unit": "mg/L"}, {"measurement": "ED50", "setting": "Escherichia coli [10]", "result": 12, "unit": "mg/kg"}, {"measurement": "MIC", "setting": "Escherichia coli [11]", "result": "> 64", "unit": "mg/L"}, {"measurement": "MIC", "setting": "Escherichia coli [12]", "result": "> 64", "unit": "mg/L"}, {"measurement": "MIC", "setting": "Escherichia coli [13]", "result": 2, "unit": "mg/L"}, {"measurement": "ED50", "setting": "Escherichia coli [14]", "result": 12, "unit": "mg/kg"}, {"measurement": "ED50", "setting": "Escherichia coli [15]", "result": 12, "unit": "mg/kg"}, {"measurement": "ED50", "setting": "Pseudomonas aeruginosa [16]", "result": 246, "unit": "mg/kg"}, {"measurement": "MIC", "setting": "Staphylococcus aureus [17]", "result": 1, "unit": "mg/L"}, {"measurement": "MIC", "setting": "Pseudomonas aeruginosa [18]", "result": 32, "unit": "mg/L"}, {"measurement": "ED50", "setting": "Enterobacter cloacae [19]", "result": 30, "unit": "mg/kg"}, {"measurement": "ED50", "setting": "Escherichia coli [20]", "result": 8.5, "unit": "mg/kg"}, {"measurement": "MIC", "setting": "Escherichia coli [21]", "result": "> 64", "unit": "mg/L"}, {"measurement": "ED50", "setting": "Enterobacter cloacae [22]", "result": 47, "unit": "mg/kg"}, {"measurement": "MIC", "setting": "Salmonella typhimurium [23]", "result": 8, "unit": "mg/L"}, {"measurement": "MIC", "setting": "Salmonella typhimurium [24]", "result": "> 64", "unit": "mg/L"}, {"measurement": "ED50", "setting": "Escherichia coli [25]", "result": 40, "unit": "mg/kg"}, {"measurement": "ED50", "setting": "Escherichia coli [26]", "result": 12, "unit": "mg/kg"}, {"measurement": "ED50", "setting": "Salmonella typhimurium [27]", "result": 1120, "unit": "mg/kg"}, {"measurement": "ED50", "setting": "Enterobacter cloacae [28]", "result": 69, "unit": "mg/kg"}, {"measurement": "MIC", "setting": "Escherichia coli [29]", "result": 0.25, "unit": "mg/L"}, {"measurement": "MIC", "setting": "Staphylococcus aureus [30]", "result": "> 64", "unit": "mg/L"}, {"measurement": "MIC", "setting": "Staphylococcus aureus [31]", "result": 1, "unit": "mg/L"}, {"measurement": "MIC", "setting": "Klebsiella pneumoniae [32]", "result": "> 64", "unit": "mg/L"}, {"measurement": "MIC", "setting": "Escherichia coli [33]", "result": 128, "unit": "mg/L"}, {"measurement": "MIC", "setting": "Klebsiella pneumoniae [34]", "result": "> 64", "unit": "mg/L"}, {"measurement": "ED50", "setting": "Escherichia coli [35]", "result": 45, "unit": "mg/kg"}, {"measurement": "MIC", "setting": "Klebsiella pneumoniae [36]", "result": 8, "unit": "mg/L"}]}]}
